# Measurements from patent US20240239767A1 (AstraZeneca AB, priority 2022, published 2024).
# Legend:
# PCSK9 [1] = biological target: T1, PCSK9 (Homo sapiens, UniProt Q8NBP7, G670E/V474I); assay: biochemical
# Target sequence in this assay (Q8NBP7 with tags, fused parts or gaps V474I/G670E): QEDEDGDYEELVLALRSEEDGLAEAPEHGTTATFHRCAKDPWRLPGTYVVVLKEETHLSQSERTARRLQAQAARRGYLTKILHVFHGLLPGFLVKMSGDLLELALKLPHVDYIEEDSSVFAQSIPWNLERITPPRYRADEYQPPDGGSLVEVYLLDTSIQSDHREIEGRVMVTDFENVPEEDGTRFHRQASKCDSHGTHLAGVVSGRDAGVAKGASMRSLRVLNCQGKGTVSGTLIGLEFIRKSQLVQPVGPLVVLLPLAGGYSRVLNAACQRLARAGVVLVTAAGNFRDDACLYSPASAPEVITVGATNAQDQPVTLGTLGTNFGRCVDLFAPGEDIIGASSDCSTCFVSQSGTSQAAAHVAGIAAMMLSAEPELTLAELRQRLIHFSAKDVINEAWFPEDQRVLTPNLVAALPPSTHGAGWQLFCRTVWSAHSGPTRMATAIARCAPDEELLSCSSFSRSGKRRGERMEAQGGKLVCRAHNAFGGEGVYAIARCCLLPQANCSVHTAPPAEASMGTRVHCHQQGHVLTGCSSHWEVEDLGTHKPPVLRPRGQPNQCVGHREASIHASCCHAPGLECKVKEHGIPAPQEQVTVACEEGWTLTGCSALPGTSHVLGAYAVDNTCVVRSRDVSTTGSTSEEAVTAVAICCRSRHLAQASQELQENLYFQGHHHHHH
# [2] = biological target: GSK3b (Glycogen synthase kinase-3 beta) (Homo sapiens, UniProt P49841); assay: Assay 6 - GSK3b assay (ThermoFisher, FRET Z-Lyte); assay type: biochemical; conditions: geometric mean; ATP Conc: 10.000 μM; read-out: Assay 6 (GSK3B FRET-Z-Lyte CR) GMean IC50 (μM) ATP Conc: 10.000
# Sequence of GSK3b (Glycogen synthase kinase-3 beta) (P49841 whole entry): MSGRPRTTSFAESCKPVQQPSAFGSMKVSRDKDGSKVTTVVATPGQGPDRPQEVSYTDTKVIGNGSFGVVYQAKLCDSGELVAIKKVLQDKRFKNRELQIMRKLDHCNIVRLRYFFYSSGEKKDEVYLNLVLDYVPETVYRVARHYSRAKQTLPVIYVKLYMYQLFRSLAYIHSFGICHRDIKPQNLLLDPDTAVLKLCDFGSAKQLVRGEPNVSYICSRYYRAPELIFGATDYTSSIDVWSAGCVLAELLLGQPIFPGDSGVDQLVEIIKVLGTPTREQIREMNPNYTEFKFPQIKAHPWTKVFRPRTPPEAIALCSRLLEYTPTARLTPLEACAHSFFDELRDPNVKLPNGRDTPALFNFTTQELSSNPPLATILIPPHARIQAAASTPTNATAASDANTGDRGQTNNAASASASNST
# Protocol: This assay measures the activity of the compounds at GSK3b (Glycogen synthase kinase-3 beta).
# The test compounds were screened in 1% DMSO (final) in the well. For 10-point titrations, 3-fold serial dilutions are conducted from the starting concentration of 10 μM.
# • Bar-coded Corning, low volume NBS, black 384-well plate • 1. 2.5 μL—4× Test Compound or 100 nL 100× plus 2.4 μL kinase buffer • 2. 5 μL—2× Peptide/Kinase Mixture • 3. 2.5 μL—4× ATP Solution • 4. 30-second plate shake • 5. 60-minute Kinase Reaction incubation at room temperature • 6. 5 μL—Development Reagent Solution • 7. 30-second plate shake • 8. 60-minute Development Reaction incubation at room temperature • 9. Read on fluorescence plate reader and analyse the data
# In step 2, the 2× GSK3β (GSK3 beta)/Ser/Thr (Glycogen synthase kinase-3 beta/Serine/Threonine) 09 mixture is prepared in 50 mM HEPES (4-(2-hydroxyethyl)-1-piperazineethanesulfonic acid) pH 7.5, 0.01% BRIJ-35, 10 mM MgCl2, 1 mM EGTA (egtazic acid). The final 10 μL Kinase Reaction consists of 0.22-0.92 ng GSK3β (GSK3 beta) and 2 μM Ser/Thr 09 in 50 mM HEPES pH 7.5, 0.01% BRIJ-35, 10 mM MgCl2, 1 mM EGTA.
# In step 3 the ATP Solution is diluted to a 4× working concentration in Kinase Buffer (50 mM HEPES pH 7.5, 0.01% BRIJ-35, 10 mM MgCl2, 1 mM EGTA).
# In Step 6 the Development Reagent is diluted 1:512 in Development Buffer (10× Novel PKC Lipid Mix: 2 mg/mL Phosphatidyl Serine, 0.2 mg/mL DAG in 20 mM HEPES, pH 7.4, 0.3% CHAPS).
# SelectScreen® Kinase Profiling Service uses XLfit from IDBS. The dose response curve is curve fit to model number 205 (sigmoidal dose-response model).
# [3] = biological target: T2, potassium ion channel hERG (human Ether-á-go-go-Related Gene) (Homo sapiens, UniProt Q12809); assay: Assay 5 - hERG assay (SyncroPatch 384PE patch clamp, CHO cells); assay type: cell-based; conditions: geometric mean, CHO cells over-expressing hERG, read-out: Assay 5 (hERG Hu CHO IF EPh CR-Syncro) GMean IC50
# T2 construct: expressed in transfected cells; host or cells: Chinese hamster ovary K1 (CHO)
# T2 sequence (Q12809 whole entry): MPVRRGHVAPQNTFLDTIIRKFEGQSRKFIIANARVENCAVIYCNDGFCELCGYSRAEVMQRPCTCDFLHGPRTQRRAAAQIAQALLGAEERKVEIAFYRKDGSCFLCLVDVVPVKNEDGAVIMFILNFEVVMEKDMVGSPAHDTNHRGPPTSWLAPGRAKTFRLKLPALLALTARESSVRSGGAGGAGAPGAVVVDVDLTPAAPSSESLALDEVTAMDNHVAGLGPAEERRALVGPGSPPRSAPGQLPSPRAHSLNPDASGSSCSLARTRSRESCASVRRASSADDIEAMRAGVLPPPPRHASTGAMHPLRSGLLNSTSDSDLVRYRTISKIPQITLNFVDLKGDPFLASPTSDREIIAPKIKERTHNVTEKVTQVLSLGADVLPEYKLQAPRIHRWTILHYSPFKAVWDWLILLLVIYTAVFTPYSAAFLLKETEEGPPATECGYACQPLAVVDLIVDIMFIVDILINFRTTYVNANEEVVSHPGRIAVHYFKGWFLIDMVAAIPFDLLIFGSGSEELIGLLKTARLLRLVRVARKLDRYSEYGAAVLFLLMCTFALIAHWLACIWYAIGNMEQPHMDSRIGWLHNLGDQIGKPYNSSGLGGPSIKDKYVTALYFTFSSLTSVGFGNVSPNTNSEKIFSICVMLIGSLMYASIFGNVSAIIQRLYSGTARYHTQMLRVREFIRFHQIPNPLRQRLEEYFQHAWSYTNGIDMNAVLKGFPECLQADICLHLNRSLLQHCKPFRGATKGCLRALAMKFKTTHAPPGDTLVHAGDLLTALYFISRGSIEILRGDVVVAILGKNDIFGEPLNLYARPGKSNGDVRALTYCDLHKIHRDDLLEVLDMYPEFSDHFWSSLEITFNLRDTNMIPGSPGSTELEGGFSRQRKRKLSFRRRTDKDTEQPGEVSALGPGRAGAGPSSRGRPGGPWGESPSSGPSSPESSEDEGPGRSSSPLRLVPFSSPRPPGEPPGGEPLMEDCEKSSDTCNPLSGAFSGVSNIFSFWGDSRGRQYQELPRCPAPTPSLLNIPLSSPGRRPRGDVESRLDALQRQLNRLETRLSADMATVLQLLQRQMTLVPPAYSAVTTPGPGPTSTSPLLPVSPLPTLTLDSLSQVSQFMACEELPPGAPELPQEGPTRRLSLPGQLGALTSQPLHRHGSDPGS
# Protocol: Assay 5—hERG Assay (Human Ether-á-go-go-Related Gene)
# This assay (human Ether-á-go-go-Related Gene) measures activity of the compounds at the potassium ion channel hERG (human Ether-á-go-go-Related Gene).
# Experiments were performed on the SyncroPatch 384PE high throughput patch clamp platform at room temperature and medium resistance chips with 4 patch holes per site. Chinese hamster ovary K1 (CHO) cell lines over-expressing the ion channel of choice (hERG) were used in assay-ready format and kept in liquid nitrogen or were used from live culture. Cells were either thawed and diluted in HBSS or were detached from flasks and resuspended in HBSS. HBSS comprised 140 mM NaCl, 4 mM KCl, 10 mM HEPES and 5 mM Glucose (pH 7.4). The internal patch clamp solution was KF 120 mM, KCl 20 mM, HEPES 10 mM, EGTA 10 mM, and 25 μM Escin (pH 7.2). After the sealing process was complete, the external solution was exchanged for external patch clamp solution comprising NaCl 80 mM, KCl 4 mM, HEPES 10 mM, CaCl2 2 mM, MgCl2 1 mM, glucose 5 mM, and NMDG 60 mM (pH 7.4). All solutions were stored at room temperature, except Escin, which was stored at 4° C. All test compounds were dispensed in greiner-bio 384 well plates and tested in a 6 point cumulative assay (final DMSO concentration 0.33%). Only wells that passed previously agreed acceptance criteria for this platform were used in this analysis (30 MegaOhm seal resistance, Z prime>0.4 and current size>0.2 nA).
# PCSK9 [4] = biological target: T1, PCSK9; assay: cell-based
# Target sequence in this assay (Q8NBP7 31-152): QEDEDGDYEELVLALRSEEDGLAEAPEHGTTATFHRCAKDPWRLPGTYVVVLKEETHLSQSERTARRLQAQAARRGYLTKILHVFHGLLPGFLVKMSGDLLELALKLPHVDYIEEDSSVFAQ
# Target sequence in this assay (Q8NBP7 153-692 V474I/G670E): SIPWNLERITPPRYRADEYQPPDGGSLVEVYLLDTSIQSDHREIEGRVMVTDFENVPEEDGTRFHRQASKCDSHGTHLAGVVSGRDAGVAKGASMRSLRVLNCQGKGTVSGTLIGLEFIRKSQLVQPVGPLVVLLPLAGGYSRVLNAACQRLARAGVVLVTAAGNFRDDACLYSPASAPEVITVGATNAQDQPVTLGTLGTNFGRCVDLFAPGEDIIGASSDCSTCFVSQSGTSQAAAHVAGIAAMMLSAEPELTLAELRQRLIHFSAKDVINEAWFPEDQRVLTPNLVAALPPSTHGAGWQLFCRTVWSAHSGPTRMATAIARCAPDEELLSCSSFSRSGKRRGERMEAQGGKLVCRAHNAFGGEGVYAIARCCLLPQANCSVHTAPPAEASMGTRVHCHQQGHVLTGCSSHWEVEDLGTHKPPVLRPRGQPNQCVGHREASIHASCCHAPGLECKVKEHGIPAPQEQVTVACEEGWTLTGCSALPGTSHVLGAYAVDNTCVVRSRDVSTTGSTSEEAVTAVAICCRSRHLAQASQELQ
# Text: This assay measures for PCSK9 antagonist activity based on a test compound's capacity to restore LDL-C uptake in HepG2 cells. The assay is based on exogenous PCSK9 and LDL-C complexed with a pH-sensitive dye. Outside the cells, at neutral pH, the pHrodo Red-LDL is dimly fluorescent but upon LDLR mediated endocytosis it fluoresces brightly. PCSK9 traffics the LDLR to intracellular degradation and reduces uptake of LDL-C. Inhibition of PCSK9 reduces LDLR degradation and the increased LDL-C uptake is quantified by fluorescence microscopy.
# Cell medium: MEM supplemented with 10% FBS, 1× NEAA and Sodium Pyruvate
# Assay medium: OptiMem supplemented with penicillin/streptomycin
# Cells: HepG2 (ATCC #HB-8065)
# Cryopreserved HepG2 cells were thawed in assay medium and centrifuged for 5 min at 250 g. Supernatant was discarded and the cell pellet resuspended in cell medium and counted with a Nucleocounter. Cells were again centrifuged 5 min at 250 g and the pellet was resuspended to 500000 cells/mL in assay medium. • 2. 20 μL of above cell mix was dispensed into black pclear TC treated 384 well plates with Multidrop Combi and left at room temperature for 20 minutes. • 3. Plates were incubated at 37° C., 5% CO2 for 24 h
# Test compounds were prepared in concentration response in DMSO with a half-log dilution factor in DMSO in Echo 384 LDV plates starting at 10 mM. • 2. 30 nL of above test compounds were dispensed with Echo 655 to cells for a top concentration of 10 μM • 3. […] Plates were incubated at 37° C., 5% CO2 for 24 h
# 10 μL pHrodo Red-LDL in assay medium was dispensed to cells with Multidrop Combi for 6 μg/mL • 2. Plates were incubated at 37° C., 5% CO2 and imaged with the Incucyte S3 after 4 h and 24 h
# Image data was processed using Incucyte 2021, a software to identify cells and red fluorescent intensity. Screener was used to further process data. Data was normalized as % effect of the signal between median values of the on-plate controls of DMSO and 100 nM Evolocumab according to the formula % effect=−100*(x−DMSO)/(Evolocumab−DMSO) where x equals the measured signal. Concentration response data of the normalized values were fitted using a four-parameter logistic fit.
compound,measurement,setting,value
"O=c1ccc(Cl)cn1-c1ccc(N[C@H]2CC[C@H](Nc3nc4cccnc4o3)C2)nc1 [Example 13, 5-Chloro-6′-(((1S,3S)-3-(oxazolo[5,4-b]pyridin-2-ylamino)cyclopentyl)amino)-2H-[1,3′-bipyridin]-2-one]",IC50,PCSK9 [1],13.3 nM
same,IC50,[2],> 10 µM
same,IC50,[3],27800 nM
same,IC50,PCSK9 [4],1600 nM
"Cc1cnc2[nH]c(N[C@H]3CC[C@H](Nc4ccc(-n5ccccc5=O)cn4)C3)nc2c1 [Example 49, 6′-(((1S,3S)-3-((6-Methyl-3H-imidazo[4,5-b]pyridin-2-yl)amino)cyclopentyl)amino)-2H-[1,3′-bipyridin]-2-one]",IC50,PCSK9 [1],2.8 nM
same,IC50,[2],5.59 µM
same,IC50,[3],> 40000 nM
same,IC50,PCSK9 [4],43 nM
"CCc1cnc2[nH]c(N[C@H]3CC[C@H](Nc4ccc(-n5ccccc5=O)cn4)C3)nc2c1 [Example 56, 6′-(((1S,3S)-3-((6-Ethyl-3H-imidazo[4,5-b]pyridin-2-yl)amino)cyclopentyl)amino)-2H-[1,3′-bipyridin]-2-one]",IC50,PCSK9 [1],3.1 nM
same,IC50,[2],3.13 µM
same,IC50,[3],> 40000 nM
same,IC50,PCSK9 [4],395 nM
"O=c1ccc(OC(F)F)cn1-c1ccc(N[C@H]2CC[C@H](Nc3nc4cccnc4s3)C2)nc1 [Example 77, 5-(Difluoromethoxy)-6′-(((1S,3S)-3-(thiazolo[5,4-b]pyridin-2-ylamino)cyclopentyl)amino)-2H-[1,3′-bipyridin]-2-one]",IC50,PCSK9 [1],4.2 nM
same,IC50,[2],4.72 µM
same,IC50,[3],10400 nM
same,IC50,PCSK9 [4],204 nM
"O=c1cccnn1-c1ccc(N[C@H]2CC[C@H](Nc3nc4cccnc4[nH]3)C2)nc1 [Example 28, 2-(6-(((1S,3S)-3-((3H-Imidazo[4,5-b]pyridin-2-yl)amino)cyclopentyl)amino)pyridin-3-yl)pyridazin-3(2H)-one]",IC50,PCSK9 [1],5.7 nM
same,IC50,[2],> 10 µM
same,IC50,[3],> 40000 nM
same,IC50,PCSK9 [4],173 nM
"Cc1cccn(-c2ccc(N[C@H]3CC[C@H](Nc4nc5cccnc5s4)C3)nc2)c1=O [Example 22, 3-Methyl-6′-(((1S,3S)-3-(thiazolo[5,4-b]pyridin-2-ylamino)cyclopentyl)amino)-2H-[1,3′-bipyridin]-2-one]",IC50,PCSK9 [1],1.2 nM
same,IC50,[2],> 10 µM
same,IC50,[3],25700 nM
same,IC50,PCSK9 [4],54 nM
"O=c1[nH]c2ccccc2n1-c1ccc(N[C@H]2CC[C@H](Nc3nc4cccnc4[nH]3)C2)nc1 [Example 35, 1-(6-(((1S,3S)-3-((3H-Imidazo[4,5-b]pyridin-2-yl)amino)cyclopentyl)amino)pyridin-3-yl)-1,3-dihydro-2H-benzo[d]imidazol-2-one]",IC50,PCSK9 [1],0.7 nM
same,IC50,[2],7.61 µM
same,IC50,[3],27400 nM
same,IC50,PCSK9 [4],108 nM
"COc1ccc(=O)n(-c2ccc(N[C@H]3CC[C@H](Nc4nc5cccnc5[nH]4)C3)nc2)c1 [Example 72, 6′-(((1S,3S)-3-((3H-Imidazo[4,5-b]pyridin-2-yl)amino)cyclopentyl)amino)-5-methoxy-2H-[1,3′-bipyridin]-2-one]",IC50,PCSK9 [1],5 nM
same,IC50,[2],0.01 µM
same,IC50,[3],> 40000 nM
same,IC50,PCSK9 [4],163 nM
"CN1CC(=O)N(c2ccc(N[C@H]3CC[C@H](Nc4nc5cccnc5[nH]4)C3)nc2)C1=O [Example 38, 3-(6-(((1S,3S)-3-((3H-Imidazo[4,5-b]pyridin-2-yl)amino)cyclopentyl)amino)pyridin-3-yl)-1-methylimidazolidine-2,4-dione]",IC50,PCSK9 [1],5.7 nM
same,IC50,[2],> 10 µM
same,IC50,[3],> 40000 nM
same,IC50,PCSK9 [4],158 nM
"O=c1ccccn1-c1ccc(N[C@H]2CC[C@H](Nc3nc4cc(OC(F)(F)F)cnc4[nH]3)C2)nc1 [Example 51, 6′-(((1S,3S)-3-((6-(Trifluoromethoxy)-3H-imidazo[4,5-b]pyridin-2-yl)amino)cyclopentyl)amino)-2H-[1,3′-bipyridin]-2-one]",IC50,PCSK9 [1],2.5 nM
same,IC50,[2],1.52 µM
same,IC50,[3],30000 nM
same,IC50,PCSK9 [4],49 nM
"O=c1c(Cl)cccn1-c1ccc(N[C@H]2CC[C@H](Nc3nc4cccnc4o3)C2)nc1 [Example 16, 3-Chloro-6′-(((1S,3S)-3-(oxazolo[5,4-b]pyridin-2-ylamino)cyclopentyl)amino)-2H-[1,3′-bipyridin]-2-one]",IC50,PCSK9 [1],1.6 nM
same,IC50,[2],> 10 µM
same,IC50,[3],28400 nM
same,IC50,PCSK9 [4],81 nM
"O=c1ccccn1-c1ccc(N[C@H]2CC[C@H](Nc3nc4c(Cl)c(Cl)cnc4[nH]3)C2)nc1 [Example 50, 6′-(((1S,3S)-3-((6,7-Dichloro-3H-imidazo[4,5-b]pyridin-2-yl)amino)cyclopentyl)amino)-2H-[1,3′-bipyridin]-2-one]",IC50,PCSK9 [1],10.5 nM
same,IC50,[2],0.024 µM
same,IC50,[3],32000 nM
same,IC50,PCSK9 [4],190 nM
"O=c1ccc(-c2nn[nH]n2)cn1-c1ccc(N[C@H]2CC[C@H](Nc3nc4cccnc4[nH]3)C2)nc1 [Example 86, 6′-(((1S,3S)-3-((3H-Imidazo[4,5-b]pyridin-2-yl)amino)cyclopentyl)amino)-5-(2H-tetrazol-5-yl)-2H-[1,3′-bipyridin]-2-one]",IC50,PCSK9 [1],3.5 nM
same,IC50,PCSK9 [4],187 nM
"Cc1ccc2nc(N[C@H]3CC[C@H](Nc4ccc(-n5ccccc5=O)cn4)C3)oc2c1 [Example 2, 6′-(((1S,3S)-3-((6-Methylbenzo[d]oxazol-2-yl)amino)cyclopentyl)amino)-2H-[1,3′-bipyridin]-2-one]",IC50,PCSK9 [1],11.8 nM
same,IC50,[2],> 10 µM
same,IC50,[3],13200 nM
"COc1ccnc2[nH]c(N[C@H]3CC[C@H](Nc4ccc(-n5ccccc5=O)cn4)C3)nc12 [Example 27, 6′-(((1S,3S)-3-((7-Methoxy-3H-imidazo[4,5-b]pyridin-2-yl)amino)cyclopentyl)amino)-2H-[1,3′-bipyridin]-2-one]",IC50,PCSK9 [1],49 nM
same,IC50,[2],2.49 µM
same,IC50,[3],> 40000 nM
"O=c1ccccn1-c1ccc(N[C@H]2CC[C@H](Nc3nc4ccc(Br)cc4o3)C2)nc1 [Example 3, 6′-(((1S,3S)-3-((6-Bromobenzo[d]oxazol-2-yl)amino)cyclopentyl)amino)-2H-[1,3′-bipyridin]-2-one]",IC50,PCSK9 [1],8.2 nM
same,IC50,[2],> 10 µM
same,IC50,[3],4200 nM
"O=c1ccccn1-c1ccc(N[C@H]2CC[C@H](Nc3nc4ccc(Br)cc4s3)C2)nc1 [Example 6, 6′-(((1S,3S)-3-((6-Bromobenzo[d]thiazol-2-yl)amino)cyclopentyl)amino)-2H-[1,3′-bipyridin]-2-one]",IC50,PCSK9 [1],2730 nM
same,IC50,[2],> 10 µM
same,IC50,[3],2640 nM
"Fc1cccnc1-c1ccc(N[C@H]2CC[C@H](Nc3nc4cccnc4[nH]3)C2)nc1 [Example 30, (1S,3S)—N^1-(3-Fluoro-[2,3′-bipyridin]-6′-yl)-N^3-(3H-imidazo[4,5-b]pyridin-2-yl)cyclopentane-1,3-diamine]",IC50,PCSK9 [1],34.5 nM
same,IC50,[2],> 10 µM
same,IC50,[3],3150 nM
"Cc1ncc(-c2ccc(=O)n(-c3ccc(N[C@H]4CC[C@H](Nc5nc6cccnc6[nH]5)C4)nc3)c2)cn1 [Example 53, 6′-(((1S,3S)-3-((3H-Imidazo[4,5-b]pyridin-2-yl)amino)cyclopentyl)amino)-5-(2-methylpyrimidin-5-yl)-2H-[1,3′-bipyridin]-2-one]",IC50,PCSK9 [1],19 nM
same,IC50,[2],3.86 µM
same,IC50,[3],> 40000 nM
